Test results taken from US7759337B2, “Phthalazine compounds and methods of use” (Amgen Inc., priority 2005, dated 2010).
pIC50: −log10 of the molar value.

What follows are compounds tested on production of TNF by monocytes activated with bacterial lipopolysaccharide (LPS) (assay: Lipopolysaccharide-activated monocyte TNF production assay). Details: Homo sapiens; whole blood monocyte assay (LPS induced TNF release).
Format: cell-based
Experimental: Test compounds were evaluated in vitro for the ability to inhibit the production of TNF by monocytes activated with bacterial lipopolysaccharide (LPS). Fresh residual source leukocytes (a byproduct of plateletpheresis) were obtained from a local blood bank, and peripheral blood mononuclear cells (PBMCs) were isolated by density gradient centrifugation on Ficol-Paque Plus (Pharmacia). PBMCs were suspended at 2×10^6/mL in DMEM supplemented to contain 2% FCS, 10 mM, 0.3 mg/mL […], 100 U/mL penicillin G and […] streptomycin sulfate (complete media). Cells were plated into Falcon flat bottom, 96 well culture plates (200 μL/well) and cultured overnight at 37° C. and 6% CO2. Non-adherent cells were removed by washing with 200 μl/well of fresh medium.
Test compounds were dissolved in […]. Compound stock solutions were prepared to an initial concentration of […]. Stocks were diluted initially to 20-200 μM in complete media. Nine two-fold serial dilutions of each compound were then prepared in complete medium.
One hundred microliters of each test compound dilution were added to microtiter wells containing adherent monocytes and 100 μL complete medium. Monocytes were cultured with test compounds for 60 min at which time 25 μL of complete medium containing 30 ng/mL lipopolysaccharide from E. coli K532 were added to each well. Cells were cultured an additional 4 hrs. Culture supernatants were then removed and TNF presence in the supernatants was quantified using an ELISA.
Flat bottom, 96 well Corning High Binding ELISA plates were coated overnight (4° C.) with 150 μL/well of 3 μg/mL murine anti-human TNF-α MAb (R&D Systems #MAB210). Wells were then blocked for 1 h at room temperature with 200 μL/well of CaCl2-free ELISA buffer supplemented to contain 20 mg/mL BSA (standard ELISA buffer: […], 150 mM NaCl, 2 mM CaCl2, 0.15 mM thimerosal, pH 7.4). Plates were washed and replenished with 100 μL of test supernatants (diluted 1:3) or standards. Standards consisted of eleven 1.5-fold serial dilutions from a stock of I ng/mL recombinant human TNF (R&D Systems). Plates were incubated at room temperature for 1 h on orbital shaker (300 rpm), washed and replenished with 100 μL/well of 0.5 μg/mL goat anti-human TNF-α (R&D systems #AB-210-NA) biotinylated at a 4:1 ratio. Plates were incubated for 40 min, washed and replenished with 100 μL/well of alkaline phosphatase-conjugated streptavidin (Jackson ImmunoResearch #016-050-084) at 0.02 μg/mL. Plates were incubated 30 min, washed and replenished with 200 μL/well of 1 mg/mL of p-nitrophenyl phosphate. After 30 min, plates were read at 405 nm on a Vmax plate reader.
Standard curve data were fit to a second order polynomial and unknown TNF-α concentrations determined from their OD by solving this equation for concentration. TNF concentrations were then plotted vs. test compound concentration using a second order polynomial. This equation was then used to calculate the concentration of test compounds causing a 50% reduction in TNF production.

| SMILES | pIC50 |
| --- | --- |
| Cc1ccc(C(=O)NC2CC2)cc1-c1ccc2c(N3CCn4c(nnc4C(F)(F)F)C3)nncc2c1 [Example 104, N-cyclopropyl-4-methyl-3-(1-(3-(trifluoromethyl)-5,6-dihydro-[1,2,4]triazolo[4,3-a]pyrazin-7(8H)-yl)phthalazin-6-yl)benzamide] | ≥ 5.30 |
| Cc1ccc(C(=O)NC2CC2)cc1-c1ccc2c(N3CCCC3C)nncc2c1 (centres unmarked) [Example 105, N-cyclopropyl-4-methyl-3-(1-(2-methylpyrrolidin-1-yl)phthalazin-6-yl)benzamide] | ≥ 5.30 |
| Cc1ccc(S(N)(=O)=O)cc1-c1ccc2c(N3CCOCC3)nncc2c1 [Example 106, 4-Methyl-3-(1-morpholinophthalazin-6-yl)benzenesulfonamide] | ≥ 5.30 |
| Cc1ccc(C(=O)Nc2ccon2)cc1-c1ccc2c(N3CCOCC3)nncc2c1 [Example 108, N-(Isoxazol-3-yl)-4-methyl-3-(1-morpholinophthalazin-6-yl)benzamide] | ≥ 5.30 |
| Cc1ccc(C(=S)NC2CC2)cc1-c1ccc2c(N3CCOCC3)nncc2c1 [Example 109, N-Cyclopropyl-4-methyl-3-(1-morpholinophthalazin-6-yl)benzothioamide] | ≥ 5.30 |
| Cc1ccc(C(=O)NC2CC2)cc1-c1ccc2c(N3CCNC[C@H]3C)nncc2c1 [Example 110, N-cyclopropyl-4-methyl-3-{1-[(2R)-2-methylpiperazin-1-yl]phthalazin-6-yl}benzamide] | ≥ 5.30 |
| Cc1ccc(C(=O)NC2CC2)cc1-c1ccc2c(NCCN3CCOCC3)nncc2c1 [Example 111, N-cyclopropyl-4-methyl-3-{1-[(2-morpholin-4-ylethyl)amino]phthalazin-6-yl}benzamide] | ≥ 5.30 |
| Cc1ccc(C(=O)NC2CC2)cc1-c1ccc2c(N3C[C@@H](C)OC[C@@H]3C)nncc2c1 [Example 112, N-cyclopropyl-3-{1-[(2R,5S)-2,5-dimethylmorpholin-4-yl]phthalazin-6-yl}-4-methylbenzamide] | ≥ 5.30 |
| Cc1cnc(C(=O)NC2CC2)cc1-c1ccc2c(N3C[C@@H](C)OC[C@H]3C)nncc2c1 [Example 113, N-cyclopropyl-4-{1-[(2R,5R)-2,5-dimethylmorpholin-4-yl]phthalazin-6-yl}-5-methylpyridine-2-carboxamide] | ≥ 5.30 |
| Cc1ccc(C(=O)NC2CC2)cc1-c1ccc2c(N3CCC(C(N)=O)CC3)nncc2c1 [Example 114, 1-(6-{5-[(cyclopropylamino)carbonyl]-2-methylphenyl}phthalazin-1-yl)piperidine-4-carboxamide] | ≥ 5.30 |
| Cc1ccc(C(N)=O)cc1-c1ccc2c(N3C[C@@H]4C[C@H]3CO4)nncc2c1 [Example 115, 4-methyl-3-{1-[(1S,4S)-2-oxa-5-azabicyclo[2.2.1]hept-5-yl]phthalazin-6-yl}benzamide] | ≥ 5.30 |
| Cc1ccc(C(N)=O)cc1-c1ccc2c(N3CCNC(=O)C3)nncc2c1 [Example 116, 4-methyl-3-[1-(3-oxopiperazin-1-yl)phthalazin-6-yl]benzamide] | ≥ 5.30 |
| CCNC(=O)c1ccc(C)c(-c2ccc3c(NC(C)C)nncc3c2)c1 [Example 117, N-ethyl-3-[1-(isopropylamino)phthalazin-6-yl]-4-methylbenzamide] | ≥ 5.30 |
| COc1nncc2cc(-c3cc(C(N)=O)ccc3C)ccc12 [Example 118, 3-(1-methoxyphthalazin-6-yl)-4-methylbenzamide] | ≥ 5.30 |
| Cc1ccc(C(N)=O)cc1-c1ccc2c(N3C[C@H](C)OC[C@@H]3C)nncc2c1 [Example 119, 3-{1-[(2S,5S)-2,5-dimethylmorpholin-4-yl]phthalazin-6-yl}-4-methylbenzamide] | ≥ 5.30 |
| Cc1ccc(C(=O)NC2CC2)cc1-c1ccc2c(N3C[C@@H]4C[C@H]3CO4)nncc2c1 [Example 120, N-cyclopropyl-4-methyl-3-{1-[(1S,4S)-2-oxa-5-azabicyclo[2.2.1]hept-5-yl]phthalazin-6-yl}benzamide] | ≥ 5.30 |

| SMILES | pIC50 |
| --- | --- |
| Cc1cc(C)c(-c2nncc3cc(-c4cc(C(=O)NC5CC5)ccc4C)ccc23)c(C)c1 [Example 121, N-cyclopropyl-3-(1-mesitylphthalazin-6-yl)-4-methylbenzamide] | ≥ 5.30 |
| Cc1ccc(C(N)=O)cc1-c1ccc2c(N3C[C@@H](C)NC[C@@H]3C)nncc2c1 [Example 122, 3-{1-[(2S,5R)-2,5-dimethylpiperazin-1-yl]phthalazin-6-yl}-4-methylbenzamide] | ≥ 5.30 |
| Cc1ccc(C(=O)NC2CC2)cc1-c1ccc2c(N3C[C@H](C)OC[C@@H]3C)nncc2c1 [Example 123, N-cyclopropyl-3-{1-[(2S,5S)-2,5-dimethylmorpholin-4-yl]phthalazin-6-yl}-4-methylbenzamide] | ≥ 5.30 |
| Cc1ccc(C(=O)NC2CC2)cc1-c1ccc2c(N3CCN(C(=O)Nc4ccccc4)CC3)nncc2c1 [Example 124, 4-(6-{5-[(cyclopropylamino)carbonyl]-2-methylphenyl}phthalazin-1-yl)-N-phenylpiperazine-1-carboxamide] | ≥ 5.30 |
| Cc1ccc(C(=O)NC2CC2)cc1-c1ccc2c(N3C[C@@H]4C[C@H]3CN4)nncc2c1 [Example 125, N-cyclopropyl-3-{1-[(1S,4S)-2,5-diazabicyclo[2.2.1]hept-2-yl]phthalazin-6-yl}-4-methylbenzamide] | ≥ 5.30 |
| Cc1ccc(C(=O)NC2CC2)cc1-c1ccc2c(N3C[C@@H]4C[C@H]3CN4C(=O)OC(C)(C)C)nncc2c1 [Example 126, tert-butyl (1S,4S)-5-(6-{5-[(cyclopropylamino)carbonyl]-2-methylphenyl}phthalazin-1-yl)-2,5-diazabicyclo[2.2.1]heptane-2-carboxylate] | ≥ 5.30 |
| Cc1ccc(C(N)=O)cc1-c1ccc2c(N3CCS(=O)(=O)CC3)nncc2c1 [Example 127, 3-[1-(1,1-dioxidothiomorpholin-4-yl)phthalazin-6-yl]-4-methylbenzamide] | ≥ 5.30 |
| Cc1ccc(C(N)=O)cc1-c1ccc2c(N3CCSCC3)nncc2c1 [Example 128, 4-methyl-3-(1-thiomorpholin-4-ylphthalazin-6-yl)benzamide] | ≥ 5.30 |
| CCNC(=O)N1CCN(c2nncc3cc(-c4cc(C(=O)NC5CC5)ccc4C)ccc23)CC1 [Example 129, 4-(6-{5-[(cyclopropylamino)carbonyl]-2-methylphenyl}phthalazin-1-yl)-N-ethylpiperazine-1-carboxamide] | ≥ 5.30 |
| CC[C@@H]1CCCCN1c1nncc2cc(-c3cc(C(=O)NC4CC4)ccc3C)ccc12 [Example 130, N-cyclopropyl-3-{1-[(2R)-2-ethylpiperidin-1-yl]phthalazin-6-yl}-4-methylbenzamide] | ≥ 5.30 |
| Cc1ccc(-c2nncc3cc(-c4cc(C(=O)NC5CC5)ccc4C)ccc23)cc1 [Example 131, N-cyclopropyl-4-methyl-3-[1-(4-methylphenyl)phthalazin-6-yl]benzamide] | ≥ 5.30 |
| Cc1ccc(C(=O)NC2CC2)cc1-c1ccc2c(N3CCC[C@@H](C(N)=O)C3)nncc2c1 [Example 132, (3R)-1-(6-{5-[(cyclopropylamino)carbonyl]-2-methylphenyl}phthalazin-1-yl)piperidine-3-carboxamide] | ≥ 5.30 |
| Cc1ccc(C(=O)NC2CC2)cc1-c1ccc2c(N3CCS(=O)(=O)CC3)nncc2c1 [Example 133, N-cyclopropyl-3-[1-(1,1-dioxidothiomorpholin-4-yl)phthalazin-6-yl]-4-methylbenzamide] | ≥ 5.30 |
| Cc1ccc(C(=O)NC2CC2)cc1-c1ccc2c(N3CCSCC3)nncc2c1 [Example 134, N-cyclopropyl-4-methyl-3-(1-thiomorpholin-4-ylphthalazin-6-yl)benzamide] | ≥ 5.30 |
| Cc1cc(F)c(C(=O)NC2CC2)cc1-c1ccc2c(N3C[C@@H](C)OC[C@H]3C)nncc2c1 [Example 135, N-cyclopropyl-5-{1-[(2R,5R)-2,5-dimethylmorpholin-4-yl]phthalazin-6-yl}-2-fluoro-4-methylbenzamide] | ≥ 5.30 |
| Cc1ccc(C(=O)NC2CC2)cc1-c1ccc2c(N3CC[C@H]4CCCC[C@H]4C3)nncc2c1 [Example 136, 3-{1-[(4aR,8aR)-octahydroisoquinolin-2(1H)-yl]phthalazin-6-yl}-N-cyclopropyl-4-methylbenzamide] | ≥ 5.30 |
